The source of these data is BindingDB's records for patent US20230339981 (Gilead Sciences, 2023).

The term IC50 denotes the concentration that gives 50% inhibition.

GTPase KRas [G12D], sequence (P01116 whole entry G12D): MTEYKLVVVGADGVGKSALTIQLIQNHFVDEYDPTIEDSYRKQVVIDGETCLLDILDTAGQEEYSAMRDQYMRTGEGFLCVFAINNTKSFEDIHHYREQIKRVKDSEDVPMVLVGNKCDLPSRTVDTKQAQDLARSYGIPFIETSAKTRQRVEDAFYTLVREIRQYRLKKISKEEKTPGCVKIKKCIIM

The assay has as its target GTPase KRas [G12D] (Homo sapiens, UniProt P01116, G12D). Briefly: Biochemical Assay. On the procedure:
Compounds were tested for binding to GDP-loaded KRAS G12D in a 384-well assay format using a TR-FRET probe displacement assay in buffer consisting of 50 mM Hepes (pH 7.4), 150 mM NaCl, 5 mM MgCl2 and 0.005% Tween-20. […] Compounds were serially diluted (1:3) in DMSO. The LabCyte ECHO Acoustic dispenser system was used to pre-spot the assay plates (384-well Non-Binding Surface plates, Corning, Catalog #3824) with 50 nL of compound. The compounds were pre-incubated with 5 μL of 2× final enzyme concentration for 30 minutes before adding 5 μL of 2× final concentration of Eu-streptavidin and TR-FRET probe (10 μL final reaction volume). The plates were incubated at room temperature for 2 hours before measuring TR-FRET ratio on the Envision plate reader. IC50 values were defined as the compound concentration that causes a 50% decrease in TR-FRET ratio and were calculated using a sigmoidal dose-response model to generate curve fits.
Consider `C#Cc1c(F)ccc2cc(O)cc(-c3nc4c5c(nc(OC[Si](C)(C)CN6CCOCC6)nc5c3F)N3C[C@H]5CC[C@H](N5)[C@H]3CO4)c12` [US20230339981, Example 29], for which the IC50 amounted to 560 nM.

Compound `C#Cc1c(F)ccc2cc(O)cc(-c3nc4c5c(nc(OC[C@@]67CCCN6C[C@H](F)C7)nc5c3F)N3C[C@H]5CC[C@H](N5)[C@@H]3CC4)c12` [US20230339981, Example 133] came in with a half-maximal inhibitory concentration (IC50) of 0.1 nM.

On to `C#Cc1c(F)ccc2cccc(-c3nc4c5c(nc(OC[C@@]67CCCN6C[C@@H](OC(F)(F)F)C7)nc5c3F)N3C[C@H]5CC[C@H](N5)[C@H]3CC4)c12` [US20230339981, Example 140], for which the half-maximal inhibitory concentration (IC50) was determined as 3.7 nM.

`Fc1ccc2cccc(-c3nc4c5c(nc(OC[C@@]67CCCN6C[C@H](F)C7)nc5c3F)N3C[C@H]5CC[C@H](N5)[C@H]3CC4)c2c1OC(F)(F)F` [US20230339981, Example 65] registered an IC50 of 89 nM. This IC50 lies about 24-fold higher than the previous one.

Consider `C#Cc1c(F)ccc2cc(O)cc(-c3nc4c5c(nc(OCC6(CN7CCC8(CC7)CC8)CC6)nc5c3F)N3C[C@H]5CC[C@H](N5)[C@H]3CC4)c12` [US20230339981, Example 177], for which the 50% inhibitory concentration (IC50) was 0.1 nM. Compared with the last compound, the IC50 is about 890-fold lower.
